Source: ChEMBL document CHEMBL4715885, “Novel dual LSD1/HDAC6 inhibitors for the treatment of multiple myeloma” (Bioorg Med Chem Lett, 2021)
In brackets after ≈: the same amount, converted by molar mass. Activity calls are given as the source filed them. The calls are words filed in the database; no cut-off is given here.

Experiments:
[1] = system: MM1.S; assay: Antiproliferative activity against human MM1.S cells assessed as reduction in cell viability at 10 uM after 144 hrs relative to control; assay type: functional
[2] = target: Histone deacetylase 1 (Homo sapiens) (UniProt Q13547); assay: Inhibition of human HDAC1 at 1uM using RHKKAc as substrate by fluorescence method relative to control
[3] = system: MM1.S; assay: Antiproliferative activity against human MM1.S cells assessed as reduction in cell viability after 144 hrs; assay type: functional, cell-based
[4] = target: T1, Protein deacetylase HDAC6 (Homo sapiens, UniProt Q9UBN7); assay: Inhibition of human HDAC6 (unknown origin) using RHKKAc as substrate by fluorescence method
T1 sequence (Q9UBN7 whole entry): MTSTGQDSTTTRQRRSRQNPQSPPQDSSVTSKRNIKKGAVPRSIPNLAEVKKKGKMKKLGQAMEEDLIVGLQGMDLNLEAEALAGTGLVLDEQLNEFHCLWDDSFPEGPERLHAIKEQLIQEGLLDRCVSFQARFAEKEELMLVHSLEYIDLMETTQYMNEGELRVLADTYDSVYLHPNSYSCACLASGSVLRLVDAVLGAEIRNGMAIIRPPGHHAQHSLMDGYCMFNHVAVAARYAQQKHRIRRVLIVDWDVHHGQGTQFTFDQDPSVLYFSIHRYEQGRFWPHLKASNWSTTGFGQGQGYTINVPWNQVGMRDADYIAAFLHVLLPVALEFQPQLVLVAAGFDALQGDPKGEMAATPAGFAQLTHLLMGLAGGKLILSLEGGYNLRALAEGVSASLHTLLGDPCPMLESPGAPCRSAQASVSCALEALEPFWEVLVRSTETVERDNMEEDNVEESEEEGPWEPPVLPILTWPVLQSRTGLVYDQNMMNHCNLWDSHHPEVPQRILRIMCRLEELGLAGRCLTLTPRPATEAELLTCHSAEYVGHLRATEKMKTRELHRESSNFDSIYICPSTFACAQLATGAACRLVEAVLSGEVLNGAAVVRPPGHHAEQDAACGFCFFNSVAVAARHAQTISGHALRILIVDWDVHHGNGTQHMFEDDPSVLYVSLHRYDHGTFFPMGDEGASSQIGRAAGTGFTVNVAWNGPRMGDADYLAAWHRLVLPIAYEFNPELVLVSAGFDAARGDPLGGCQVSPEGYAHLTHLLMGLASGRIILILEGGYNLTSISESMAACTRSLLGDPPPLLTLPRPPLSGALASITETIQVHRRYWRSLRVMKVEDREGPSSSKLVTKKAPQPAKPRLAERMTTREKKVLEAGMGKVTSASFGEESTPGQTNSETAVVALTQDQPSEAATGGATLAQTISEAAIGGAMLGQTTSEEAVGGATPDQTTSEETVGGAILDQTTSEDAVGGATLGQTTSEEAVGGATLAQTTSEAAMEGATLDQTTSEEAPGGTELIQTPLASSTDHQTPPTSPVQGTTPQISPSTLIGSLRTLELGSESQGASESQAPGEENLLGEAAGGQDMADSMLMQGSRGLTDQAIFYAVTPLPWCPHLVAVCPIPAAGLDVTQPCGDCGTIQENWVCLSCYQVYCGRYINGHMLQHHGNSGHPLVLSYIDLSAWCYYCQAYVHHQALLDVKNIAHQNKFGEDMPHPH

[5] = Drug concentration in plasma of mouse xenografted with human MM1.S cells at 50 mg/kg, po dosed daily for 12 days; assay type: ADME, organism-based; settings: time 12 day
[6] = Clearance in Balb/c mouse at 50 mg/kg, po; assay type: ADME, organism-based; settings: in vivo
[7] = target: CYP3A4 (Homo sapiens, UniProt P08684); assay: Inhibition of CYP3A4 (unknown origin) at 10 uM relative to control; assay type: ADME
[8] = AUC (0 to t) in Balb/c mouse at 10 mg/kg, iv; assay type: ADME, organism-based; design: dose 10 mg/kg; settings: in vivo
[9] = Half life in Balb/c mouse at 10 mg/kg, iv; assay type: ADME, organism-based; settings: in vivo
[10] = Initial plasma concentration in Balb/c mouse at 50 mg/kg, po; assay type: ADME, organism-based; settings: in vivo
[11] = Inhibition of HDAC phosphorylation (unknown origin); design: species or system Homo sapiens
[12] = Stability in mouse liver microsomes assessed as parent compound remaining measured after 30 mins; assay type: ADME, Microsome; settings: microsomes, 0.5 h
[13] = Cmax in Balb/c mouse at 50 mg/kg, po; assay type: ADME, organism-based; design: route oral, dose 50 mg/kg; settings: in vivo
[14] = Drug concentration in tumour of mouse xenografted with human MM1.S cells at 50 mg/kg, po dosed daily for 12 days; assay type: ADME, organism-based, Neoplasm; settings: time 12 day, read-out: Drug uptake
[15] = Permeability from apical to basolateral side in human Caco2 cells; assay type: ADME, cell-based; settings: Caco-2, read-out: permeability
[16] = Cmax in Balb/c mouse at 10 mg/kg, iv; assay type: ADME, organism-based; design: route intravenous, dose 10 mg/kg; settings: in vivo
[17] = target: CYP2D6 (Homo sapiens, UniProt P10635); assay: Inhibition of CYP2D6 (unknown origin) at 10 uM relative to control; assay type: ADME
[18] = Toxicity in SCID mouse xenografted with human MM1.S cells assessed as induction of body weight loss at 50 mg/kg, po dosed daily for 12 days; assay type: organism-based; settings: in vivo, 288 h, time 12 day
[19] = Half life in Balb/c mouse at 50 mg/kg, po; assay type: ADME, organism-based; settings: in vivo
[20] = Oral bioavailability in Balb/c mouse at 50 mg/kg; assay type: ADME, organism-based; settings: in vivo
[21] = Protein binding in plasma (unknown origin) assessed as unbound fraction; assay type: ADME, cell-free
[22] = target: Voltage-gated inwardly rectifying potassium channel KCNH2 (Homo sapiens, UniProt Q12809); assay: Inhibition of human ERG
[23] = Volume of distribution in Balb/c mouse at 50 mg/kg, po; assay type: ADME, organism-based; settings: in vivo
[24] = target: T2, Amine oxidase [flavin-containing] B (Homo sapiens, UniProt P27338); assay: Inhibition of MAO-B (unknown origin)
T2 sequence (P27338 whole entry): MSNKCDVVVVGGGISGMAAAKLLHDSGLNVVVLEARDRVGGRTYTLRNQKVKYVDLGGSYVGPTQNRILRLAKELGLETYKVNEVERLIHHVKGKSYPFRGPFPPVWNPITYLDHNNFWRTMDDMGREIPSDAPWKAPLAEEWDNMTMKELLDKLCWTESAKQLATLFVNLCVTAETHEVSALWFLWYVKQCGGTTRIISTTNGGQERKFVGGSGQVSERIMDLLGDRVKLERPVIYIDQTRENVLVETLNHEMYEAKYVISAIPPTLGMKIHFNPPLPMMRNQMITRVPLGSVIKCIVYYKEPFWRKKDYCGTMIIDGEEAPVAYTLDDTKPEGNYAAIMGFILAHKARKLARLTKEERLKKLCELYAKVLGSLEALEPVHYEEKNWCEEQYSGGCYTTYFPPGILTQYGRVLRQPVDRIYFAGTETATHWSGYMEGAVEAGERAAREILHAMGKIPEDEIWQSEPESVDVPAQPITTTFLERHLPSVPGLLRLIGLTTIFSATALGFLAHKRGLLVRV

[25] = Antiproliferative activity against human MM1.R cells assessed as reduction in cell viability after 144 hrs; assay type: functional, cell-based; settings: MM.1R
[26] = system: MM1.S; assay: Antitumour activity against human MM1.S cells xenografted in SCID mouse assessed as tumour growth inhibition at 25 mg/kg, po for 12 days relative to control; assay type: functional; settings: 288 h, time 12 day, read-out: TGI
[27] = target: T3, Amine oxidase [flavin-containing] A (Homo sapiens, UniProt P21397); assay: Inhibition of MAO-A (unknown origin)
T3 sequence (P21397 whole entry): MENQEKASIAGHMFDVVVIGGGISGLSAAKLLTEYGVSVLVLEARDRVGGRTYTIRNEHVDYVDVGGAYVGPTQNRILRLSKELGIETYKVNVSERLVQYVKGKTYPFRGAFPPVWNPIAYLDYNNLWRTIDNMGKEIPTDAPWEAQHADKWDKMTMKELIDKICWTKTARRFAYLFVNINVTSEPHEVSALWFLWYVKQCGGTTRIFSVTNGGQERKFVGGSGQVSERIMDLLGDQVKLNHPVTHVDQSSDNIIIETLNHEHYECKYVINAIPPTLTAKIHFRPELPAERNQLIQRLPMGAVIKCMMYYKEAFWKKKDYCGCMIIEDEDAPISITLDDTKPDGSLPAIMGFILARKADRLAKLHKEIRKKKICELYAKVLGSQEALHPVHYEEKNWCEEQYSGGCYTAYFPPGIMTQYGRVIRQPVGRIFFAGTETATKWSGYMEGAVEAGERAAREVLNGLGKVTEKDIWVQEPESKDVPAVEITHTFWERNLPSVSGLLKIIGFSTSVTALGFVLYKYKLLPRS

[28] = system: RPMI-8226; assay: Antiproliferative activity against human RPMI-8226 cells assessed as reduction in cell viability after 144 hrs; assay type: functional, cell-based; settings: RPMI-8226, 144 h
[29] = target: T4, Polyamine deacetylase HDAC10 (Homo sapiens, UniProt Q969S8); assay: Inhibition of HDAC10 (unknown origin)
T4 sequence (Q969S8 whole entry): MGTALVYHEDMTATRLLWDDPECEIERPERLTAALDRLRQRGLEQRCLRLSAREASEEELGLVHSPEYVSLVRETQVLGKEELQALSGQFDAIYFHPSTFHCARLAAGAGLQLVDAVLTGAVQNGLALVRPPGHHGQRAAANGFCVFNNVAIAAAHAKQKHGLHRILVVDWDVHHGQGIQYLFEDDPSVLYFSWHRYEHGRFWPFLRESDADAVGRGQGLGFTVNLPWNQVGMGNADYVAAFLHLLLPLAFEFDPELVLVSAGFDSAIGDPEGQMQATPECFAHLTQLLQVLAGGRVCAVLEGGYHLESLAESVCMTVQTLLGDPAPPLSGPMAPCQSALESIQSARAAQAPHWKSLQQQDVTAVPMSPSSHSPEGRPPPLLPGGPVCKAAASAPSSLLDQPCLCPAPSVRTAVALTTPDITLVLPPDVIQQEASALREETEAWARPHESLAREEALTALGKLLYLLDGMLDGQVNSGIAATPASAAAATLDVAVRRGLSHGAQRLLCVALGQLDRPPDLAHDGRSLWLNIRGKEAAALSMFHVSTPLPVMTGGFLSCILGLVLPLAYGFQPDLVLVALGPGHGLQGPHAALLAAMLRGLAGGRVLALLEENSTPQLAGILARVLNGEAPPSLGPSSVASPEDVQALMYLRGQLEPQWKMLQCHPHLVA

[30] = Stability in human liver microsomes assessed as parent compound remaining measured after 30 mins; assay type: ADME, Microsome; settings: microsomes, 0.5 h
[31] = Solubility of compound; assay type: physicochemical
[32] = Permeability from basolateral to apical side in human Caco2 cells; assay type: ADME, cell-based; settings: Caco-2, read-out: permeability

Voltage-gated inwardly rectifying potassium channel KCNH2, sequence (Q12809 whole entry): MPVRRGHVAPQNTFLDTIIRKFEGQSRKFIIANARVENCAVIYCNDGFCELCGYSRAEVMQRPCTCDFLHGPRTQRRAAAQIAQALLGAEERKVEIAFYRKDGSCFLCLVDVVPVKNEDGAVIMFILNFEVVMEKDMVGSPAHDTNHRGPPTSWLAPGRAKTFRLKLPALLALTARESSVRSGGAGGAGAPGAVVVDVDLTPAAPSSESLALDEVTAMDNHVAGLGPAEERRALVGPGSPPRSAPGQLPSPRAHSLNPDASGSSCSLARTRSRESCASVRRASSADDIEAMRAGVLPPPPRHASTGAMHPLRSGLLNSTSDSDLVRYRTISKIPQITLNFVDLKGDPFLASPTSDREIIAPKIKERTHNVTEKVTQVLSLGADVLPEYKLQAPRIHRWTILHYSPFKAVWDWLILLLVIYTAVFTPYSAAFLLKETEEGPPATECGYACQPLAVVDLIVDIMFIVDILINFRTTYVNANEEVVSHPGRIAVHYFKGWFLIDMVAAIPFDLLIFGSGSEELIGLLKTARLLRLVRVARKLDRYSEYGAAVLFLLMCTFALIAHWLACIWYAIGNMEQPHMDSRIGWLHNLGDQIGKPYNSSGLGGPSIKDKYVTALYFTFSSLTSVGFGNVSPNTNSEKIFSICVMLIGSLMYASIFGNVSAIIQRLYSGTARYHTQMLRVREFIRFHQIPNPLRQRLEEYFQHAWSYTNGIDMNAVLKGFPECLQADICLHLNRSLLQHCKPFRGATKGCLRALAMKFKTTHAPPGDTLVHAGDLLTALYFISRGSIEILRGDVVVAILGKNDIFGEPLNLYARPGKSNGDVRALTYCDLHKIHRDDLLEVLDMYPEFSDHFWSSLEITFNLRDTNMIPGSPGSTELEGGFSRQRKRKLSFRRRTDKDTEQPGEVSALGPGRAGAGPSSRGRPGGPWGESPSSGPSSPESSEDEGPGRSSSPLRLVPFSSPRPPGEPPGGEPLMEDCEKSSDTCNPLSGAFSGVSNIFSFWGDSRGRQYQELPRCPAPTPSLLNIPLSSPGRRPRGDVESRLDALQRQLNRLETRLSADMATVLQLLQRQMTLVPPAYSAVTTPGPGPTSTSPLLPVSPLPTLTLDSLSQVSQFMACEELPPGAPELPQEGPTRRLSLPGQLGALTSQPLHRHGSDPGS
CYP3A4, sequence (P08684 whole entry): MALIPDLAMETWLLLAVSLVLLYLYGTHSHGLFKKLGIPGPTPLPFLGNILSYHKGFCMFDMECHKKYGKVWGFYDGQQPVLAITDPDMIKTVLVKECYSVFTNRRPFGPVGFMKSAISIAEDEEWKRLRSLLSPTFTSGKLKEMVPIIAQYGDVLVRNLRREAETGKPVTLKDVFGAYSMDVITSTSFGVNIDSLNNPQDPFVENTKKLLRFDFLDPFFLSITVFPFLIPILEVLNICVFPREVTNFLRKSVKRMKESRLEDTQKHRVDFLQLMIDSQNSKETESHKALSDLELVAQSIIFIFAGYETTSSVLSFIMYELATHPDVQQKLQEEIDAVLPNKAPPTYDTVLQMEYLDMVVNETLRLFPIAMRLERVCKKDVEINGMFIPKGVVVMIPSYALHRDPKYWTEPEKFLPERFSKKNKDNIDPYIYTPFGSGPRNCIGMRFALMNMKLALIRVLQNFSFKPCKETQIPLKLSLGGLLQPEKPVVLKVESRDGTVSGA
CYP2D6, sequence (P10635 whole entry): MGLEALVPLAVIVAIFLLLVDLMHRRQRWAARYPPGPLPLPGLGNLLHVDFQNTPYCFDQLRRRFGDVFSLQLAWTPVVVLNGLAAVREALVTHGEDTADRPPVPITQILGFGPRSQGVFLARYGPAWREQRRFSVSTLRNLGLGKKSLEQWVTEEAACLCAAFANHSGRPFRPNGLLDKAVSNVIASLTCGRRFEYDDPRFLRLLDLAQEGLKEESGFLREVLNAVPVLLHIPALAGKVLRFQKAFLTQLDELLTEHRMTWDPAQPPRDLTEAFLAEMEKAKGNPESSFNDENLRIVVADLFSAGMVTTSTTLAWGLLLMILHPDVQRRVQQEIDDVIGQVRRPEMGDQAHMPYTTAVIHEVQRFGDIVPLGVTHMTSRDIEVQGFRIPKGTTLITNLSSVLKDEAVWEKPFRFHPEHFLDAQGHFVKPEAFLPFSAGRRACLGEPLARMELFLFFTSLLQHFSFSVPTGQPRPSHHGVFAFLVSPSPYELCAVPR
Histone deacetylase 1 (Homo sapiens), sequence (Q13547 whole entry): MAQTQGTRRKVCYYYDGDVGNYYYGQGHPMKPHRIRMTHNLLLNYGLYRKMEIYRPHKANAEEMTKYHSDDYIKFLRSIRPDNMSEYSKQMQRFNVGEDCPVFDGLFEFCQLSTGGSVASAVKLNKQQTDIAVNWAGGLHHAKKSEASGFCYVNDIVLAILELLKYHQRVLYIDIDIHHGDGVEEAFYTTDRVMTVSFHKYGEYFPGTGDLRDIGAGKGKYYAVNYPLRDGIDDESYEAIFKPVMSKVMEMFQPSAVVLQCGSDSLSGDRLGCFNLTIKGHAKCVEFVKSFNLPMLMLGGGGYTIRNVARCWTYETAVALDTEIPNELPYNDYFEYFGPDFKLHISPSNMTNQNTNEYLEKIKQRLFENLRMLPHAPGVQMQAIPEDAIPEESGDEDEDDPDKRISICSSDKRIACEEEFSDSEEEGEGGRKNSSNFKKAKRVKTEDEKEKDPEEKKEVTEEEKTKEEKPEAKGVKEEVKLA

Compound: Cl.Cl.NC1CCC(N[C@@H]2C[C@H]2c2ccccc2)CC1 (some centres not stated)
- Activity [1]: 30%
- inhibition [2]: inactive
- EC50 [3]: > 10 µM
- IC50 [4]: Not Active

Compound: O=C(NO)c1ccc(CCCN2CCC(CN[C@H]3C[C@@H]3c3ccccc3)CC2)cc1 (racemic)
- concentration at 288 h [5]: 52 ng/mL
- CL/F [6]: 233 mL/min/kg
- inhibition at 10 µM [7]: 11%
- AUC(0-t) [8]: 1520 ng·h/mL
- half-life [9]: 3.3 h
- C0 [10]: 1406 ng/mL
- IC50 [11]: 1.78 µM
- Stabilty [12]: 56%
- Cmax [13]: 904 ng/mL
- concentration at 288 h [14]: 216 ng/mL
- Papp A→B [15]: 2.67 ×10⁻⁶ cm/s
- Cmax [16]: 821 ng/mL
- inhibition at 10 µM [17]: 54%
- Activity [18]: Non-Toxic
- half-life [19]: 2.5 h
- bioavailability [20]: 44%
- fraction unbound [21]: 0.45
- IC50 [22]: 5.6 µM
- Vd [23]: 66 L/kg
- IC50 [24]: 6.6 µM
- EC50 [25]: 0.006 µM
- inhibition in vivo at 25 mg/kg [26]: 67%
- IC50 [27]: 8.6 µM
- EC50 [28]: 0.28 µM
- IC50 [29]: > 10 µM
- Stabilty [30]: 40%
- solubility [31]: 110 µM (≈ 44.8 µg/mL)
- Papp B→A [32]: 9.6 ×10⁻⁶ cm/s
